# Results: patent US20250388565A1, “ESTROGEN RECEPTOR ALPHA DEGRADERS AND METHODS OF USE THEREOF” (Relay Therapeutics, Inc., priority 2022, published 2025)
# Biological target: T1, ERα protein (HiBiT-tagged) in ESR1_HiBiT KI MCF7 cells (Homo sapiens, UniProt P03372)
# T1 sequence (P03372 1-595): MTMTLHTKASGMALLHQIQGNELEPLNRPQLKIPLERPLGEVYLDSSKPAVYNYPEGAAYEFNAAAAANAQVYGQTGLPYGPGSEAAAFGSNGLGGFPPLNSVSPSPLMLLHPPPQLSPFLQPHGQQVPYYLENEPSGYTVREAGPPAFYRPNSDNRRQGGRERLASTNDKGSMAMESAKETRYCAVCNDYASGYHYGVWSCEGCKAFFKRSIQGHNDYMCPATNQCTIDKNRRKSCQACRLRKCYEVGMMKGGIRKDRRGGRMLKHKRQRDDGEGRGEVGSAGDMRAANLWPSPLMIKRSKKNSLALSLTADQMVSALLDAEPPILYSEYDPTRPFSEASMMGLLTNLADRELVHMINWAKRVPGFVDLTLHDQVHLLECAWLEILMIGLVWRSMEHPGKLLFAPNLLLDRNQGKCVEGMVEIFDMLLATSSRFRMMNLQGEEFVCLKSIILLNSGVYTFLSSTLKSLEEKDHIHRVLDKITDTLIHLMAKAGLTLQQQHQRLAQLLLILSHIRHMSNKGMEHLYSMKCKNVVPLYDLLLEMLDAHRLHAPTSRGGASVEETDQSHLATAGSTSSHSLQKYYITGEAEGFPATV
# Assay: Nano Glo HiBiT Lytic Degradation Assay
# Format: cell-based
# Conditions: 6 hours with compound, 14-point dose response 1:3, bell-shape curve fit, half-maximal effect of first Hill model, read-out: MCF7 ESR1 HiBiT - (DC50)
# Summary of the method: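 Lytic Nano-Glo HiBiT luminescence quantified ERα remaining after a 6 h, 37° C compound exposure of MCF7 cells carrying endogenous HiBiT-tagged ESR1. Dosing used 14 threefold dilutions from a 10 mM DMSO stock (0.1% DMSO final), run in duplicate. Signals were corrected for cell-free background and expressed relative to DMSO, and DC50 came from a bell-shaped curve fit (first Hill model half-maximum).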
row,DC50 [nM],Compound
1,1,"O=C1CC(N2Cc3cc(N4CCN(CC5CCN(c6ccc([C@@H]7c8ccc(O)cc8CC[C@@H]7c7ccccc7)cc6)CC5)CC4)ccc3C2=O)C(=O)N1 (stereo partly drawn) [Compound I-274, 3-(5-(4-((1-(4-((1R,2S)-6-hydroxy-2-phenyl-1,2,3,4-tetrahydronaphthalen-1-yl)phenyl)piperidin-4-yl)methyl)piperazin-1-yl)-1-oxoisoindolin-2-yl) pyrrolidine-2,5-dione]"
2,≥ 10000,"Cc1cc([C@@H]2c3ccc(O)cc3CC[C@@H]2c2ccccc2)ccc1N1CCC(CN2CCN(c3ccc4c(c3)CN([C@H]3CCC(=O)NC3=O)C4=O)CC2)CC1 (single isomer, unassigned) [II-42]"
3,0.24,"C[C@H]1O[C@H](c2ccccc2)[C@H](c2ccc(N3CCC(CN4CCN(c5ccc6c(c5)CN([C@H]5CCC(=O)NC5=O)C6=O)CC4)CC3)cc2)c2ccc(O)cc21 (single isomer, unassigned) [Compound I-367]"
4,91.1,"O=C1CC[C@@H](c2ccc(N3CCC4(CCN(CC5CCN(c6ccc([C@@H]7c8ccc(O)cc8C(F)(F)C[C@@H]7c7ccccc7)cc6)CC5)C4)CC3)cc2)C(=O)N1 (single isomer, unassigned) [Compound I-286]"
5,0.1,"CC(C)[C@H]1CCc2cc(O)ccc2[C@H]1c1ccc(N2CCC(CN3CCN(c4ccc5c(c4)CN(C4CCC(=O)NC4=O)C5=O)CC3)CC2)cc1 (stereo in doubt) [Compound I-128, (R)-3-(5-(4-((1-(4-((1R,2R)-6-hydroxy-2-isopropyl-1,2,3,4-tetrahydronaphthalen-1-yl)phenyl)piperidin-4-yl)methyl)piperazin-1-yl)-1-oxoisoindolin-2-yl)piperidine-2,6-dione]"
6,6,"O=C1CC[C@H](N2Cc3cc(N4CCN(CC5CCN(c6ccc([C@H]7c8ccc(O)cc8CO[C@@]78CCCc7ccccc78)cc6)CC5)CC4)ccc3C2=O)C(=O)N1 (single isomer, unassigned) [Compound I-273]"
7,0.7,"O=C1CCN(c2ccc(N3CCC4(CCN(CC5CCN(c6ccc([C@@H]7c8ccc(O)cc8CC[C@@H]7c7ccccc7)cc6)CC5)C4)CC3)cc2)C(=O)N1 [Compound I-291, 1-(4-(2-((1-(4-((1R,2S)-6-hydroxy-2-phenyl-1,2,3,4-tetrahydronaphthalen-1-yl)phenyl)piperidin-4-yl)methyl)-2,8-diazaspiro[4.5]decan-8-yl)phenyl)dihydropyrimidine-2,4 (1H,3H)-dione]"
8,16,"O=C1CC[C@H](N2Cc3cc(N4CCN(CC5CCN(c6cc(F)c(C7=C(c8ccccc8)CCc8cc(O)ccc87)c(F)c6)CC5)CC4)ccc3C2=O)C(=O)N1 [Compound I-10, (S)-3-(5-(4-((1-(3,5-difluoro-4-(6-hydroxy-2-phenyl-3,4-dihydronaphthalen-1-yl)phenyl)piperidin-4-yl)methyl)piperazin-1-yl)-1-oxoisoindolin-2-yl)piperidine-2,6-dione]"
9,40,"Cn1c(=O)n([C@@H]2CCC(=O)NC2=O)c2ccc(N3CCN(CC4CCN(c5ccc([C@@H]6c7ccc(O)cc7CO[C@@H]6c6ccccc6)cc5)CC4)CC3)cc21 (single isomer, unassigned) [Compound I-388]"
10,0.49,"O=C1CC[C@H](N2Cc3cc(N4CCN(CC5CCN(c6ccc([C@@H]7c8ccc(O)cc8CO[C@@H]7C7CCCCC7)cc6)CC5)CC4)ccc3C2=O)C(=O)N1 [Compound I-34, (S)-3-(5-(4-((1-(4-((3R,4R)-3-cyclohexyl-7-hydroxyisochroman-4-yl)phenyl)piperidin-4-yl)methyl)piperazin-1-yl)-1-oxoisoindolin-2-yl)piperidine-2,6-dione]"
11,0.83,"O=C1CC[C@H](N2Cc3cc(N4CC5(CCN(CC6CCN(c7ccc([C@@H]8c9ccc(O)cc9CC[C@@H]8c8ccccc8)cc7)CC6)CC5)C4)ccc3C2=O)C(=O)N1 (single isomer, unassigned) [II-95]"
12,≥ 10000,Cn1ccc([C@@H]2CCc3cc(O)ccc3[C@@H]2c2ccc(N3CCC(CN4CCN(c5ccc6c(c5)CN([C@H]5CCC(=O)NC5=O)C6=O)CC4)CC3)cc2)n1 [Compound I-31]
13,≥ 10000,"O=C1CC[C@H](N2Cc3cc(N4CCN(CC5CCN(c6ccc([C@@H]7c8ccc(O)cc8CC[C@@H]7c7cccc(F)c7)cc6)CC5)CC4)ccc3C2=O)C(=O)N1 (single isomer, unassigned) [II-26]"
14,22,"C[C@@H]1O[C@H](C2CCCCC2)[C@@H](c2ccc(N3CCC(CN4CCN(c5ccc6c(c5)CN([C@H]5CCC(=O)NC5=O)C6=O)CC4)CC3)cc2)c2ccc(O)cc21 (single isomer, unassigned) [Compound I-252]"
15,0.33,"C[C@]1(C2CCCCC2)OCc2cc(O)ccc2[C@H]1c1ccc(N2CCC(CN3CCN(c4ccc5c(c4)CN([C@H]4CCC(=O)NC4=O)C5=O)CC3)CC2)cc1 (single isomer, unassigned) [Compound I-418]"
16,≥ 10000,"O=C1CC[C@H](N2Cc3cc(N4CCN(CC5CCN(c6ccc([C@@H]7CCCc8cc(O)ccc87)cc6)CC5)CC4)ccc3C2=O)C(=O)N1 (single isomer, unassigned) [Compound I-103]"
17,0.37,"Cc1cc([C@H]2CCc3cc(O)ccc3[C@H]2c2ccc(N3CCC(CN4CCN(c5ccc6c(c5)CN([C@H]5CCC(=O)NC5=O)C6=O)CC4)CC3)cc2)n(C)n1 (single isomer, unassigned) [Compound I-414]"
18,≥ 10000,"C[C@]1(N2Cc3cc(N4CCN(CC5CCN(c6ccc([C@@H]7c8ccc(O)cc8CC[C@@H]7c7ccccc7)cc6)CC5)CC4)ccc3C2=O)CCC(=O)NC1=O (single isomer, unassigned) [II-57]"
19,64,"O=C1CC[C@H](N2Cc3cc(N4CCN(CC5CCN(c6ccc([C@H]7c8ccc(O)cc8CO[C@H]7C7CCCCC7)cc6)CC5)CC4)ccc3C2=O)C(=O)N1 [Compound I-250, (S)-3-(5-(4-((1-(4-((3S,4S)-3-cyclohexyl-7-hydroxyisochroman-4-yl)phenyl)piperidin-4-yl)methyl)piperazin-1-yl)-1-oxoisoindolin-2-yl)piperidine-2,6-dione]"
20,≥ 10000,Cc1cc(F)cc(C)c1[C@H]1CCc2cc(O)ccc2[C@H]1c1ccc(N2CCC(CN3CCN(c4ccc5c(c4)CN([C@H]4CCC(=O)NC4=O)C5=O)CC3)CC2)cc1 [II-72]
21,2,"Cc1cc(N2CCC(CN3CCN(c4ccc5c(c4)CN([C@H]4CCC(=O)NC4=O)C5=O)CC3)CC2)ccc1[C@@H]1c2ccc(O)cc2CC[C@@H]1C1CCCCC1 [Compound I-141, (S)-3-(5-(4-((1-(4-((1R,2R)-2-cyclohexyl-6-hydroxy-1,2,3,4-tetrahydronaphthalen-1-yl)-3-methylphenyl)piperidin-4-yl)methyl)piperazin-1-yl)-1-oxoisoindolin-2-yl)piperidine-2,6-dione]"
22,0.45,"O=C1CC[C@H](N2Cc3cc(N4CCN(CC5CCN(c6ccc([C@@H]7c8ccc(O)cc8C(F)(F)C[C@@H]7c7ccccc7)cc6)CC5)CC4)ccc3C2=O)C(=O)N1 [Compound I-51, (S)-3-(5-(4-((1-(4-((1R,2S)-4,4-difluoro-6-hydroxy-2-phenyl-1,2,3,4-tetrahydronaphthalen-1-yl)phenyl)piperidin-4-yl)methyl)piperazin-1-yl)-1-oxoisoindolin-2-yl)piperidine-2,6-dione]"
23,4,"O=C1CC[C@H](N2Cc3cc(N4CCN(CC5CCN(c6ccc([C@@H]7c8ccc(O)cc8CO[C@]78CCCc7ccccc78)cc6)CC5)CC4)ccc3C2=O)C(=O)N1 (single isomer, unassigned) [Compound I-272]"
